Tested on: renal cancer patients
Assay: Clinical outcome of renal cancer patients treated with targeted drugs (nibs)
Type: in vivo, human
Conditions: for # of transcriptomes taken from responders: sustained stabilization of tumor progress; for # of transcriptomes taken from non-responders: tumor progression despite the applied treatment
Protocol: A set of samples taken from the tumors of renal cancer patients who were treated at Clinical Hospital of the Hertzen Cancer Institute in Moscow. These samples were examined using the Illumina HT-12 platform at Medical Center of Lethbridge University in Canada. As a reference normal renal tissue, the dataset GSE49972 (Karlsson et al., 2014) obtained on the same platform, was used. […] The overview of renal cancer transcriptomes selected for the V-dataset, is shown below in Table 3.
As an example, we list here the details of case history for one of the patient, who has been a responder to Sunitinib treatment.
Person; the clear cell cancer in left kidney; disease progression stage T3N0M1, distant metastases to lungs and skeleton. Surgery has not been performed due to the overall progression of the disease. Before the chemotherapy for distant metastases, the patient received the symptomatic radiation therapy of 30 Gy on the pelvic and femoral zone. Two months after the patient received the neo-adjuvant Sunitinib therapy in overall dose of 50 mg.
As long as two years after the treatment, the patient was still alive and continued to receive the adjuvant Sunitinib therapy.

| SMILES | # of transcriptomes taken from responders | # of transcriptomes taken from non-responders |
| --- | --- | --- |
| CCN(CC)CCNC(=O)c1c(C)[nH]c(/C=C2\C(=O)Nc3ccc(F)cc32)c1C [Sunitinib] | 5 | 10 |
| CNC(=O)c1cc(Oc2ccc(NC(=O)Nc3ccc(Cl)c(C(F)(F)F)c3)cc2)ccn1 [Sorafenib] | 13 | 15 |
| Cc1ccc(Nc2nccc(N(C)c3ccc4c(C)n(C)nc4c3)n2)cc1S(N)(=O)=O [Pazopanib] | 4 | 3 |
